Test results: patent US6887712B1, “Methods and compositions to lower plasma cholesterol levels” (AtheroGenics, Inc., priority 1998, dated 2005)

What was measured:
[1] = molecular target: T1, specific epitope on apoB-100 of LDL (Homo sapiens, UniProt P04114); experiment: Immunoreactivity cell-free sandwich ELISA: binding of LDL to capture anti-apoB monoclonal antibody; settings: for Cell-Free Assay: immunoreactivity cell-free assay of Example 3, yes/no
T1 construct: from tissue; host or cells: LDL particles (plasma lipoprotein)
Excerpt: To determine if the binding of the monosuccinic acid ester to VLDL and LDL can cause a change in the structure of apoB-100, an immunoreactivity assay was designed. This is a sandwich ELISA assay which measures the expression of a specific epitope on apoB-100. Essentially the sandwich ELISA consists of a specific monoclonal antibody directed to that epitope on apoB-100 as a capture antibody laid onto a microtitre plate. […] A second polyclonal antibody is then used to quantify the amount of LDL captured.
The detailed immunoreactivity protocol is as follows. A nunc maxi-sorp microtiter plate is coated overnight at 4° C. with 100 μl of Anti-Human ApoB monoclonal antibody from Boehringer Mannheim (catalog # 1533 975) diluted 1:1000 in PBS pH 7.4. The compounds are dissolved in DMSO with appropriate concentration of LDL for 15 minutes and incubated at 37° C.
The coated microtiter plate is washed three times with 200 μl PBS/0.05% tween, and a sample of 100 μl LDL/Compound or LDL standard is added to each well. The plates are then incubated for 2 hours at room temperature.
The microtiter plate is washed three times with 200 μl PBS/0.05% tween, and 100 μl of 1:2000 Polyclonal Human Anti-ApolipoproteinB from Boehringer Mannheim (catalog # 726 494) in PBS/tween 0.05% is added. The plate is incubated for one hour at room temperature.
The microtiter plate is washed three times with 200 ul PBS/0.05% tween, and 100 μl of 1:2000 Anti-Sheep Ig peroxidase from Boehringer Mannheim (catalog # 605 345) in PBS/05% tween is added. The plate is incubated for one hour at room temperature.
The microtiter plate is washed three times with 200 ul PBS/0.05% tween, and 100 μl of TMB substrate is added and incubated for 5-10 minutes in the dark. The reaction is stopped with 15 μl 8N H2SO4 and read on the Bio-Rad Microplate plate reader at 450 nm within 30 minutes.

plasma cholesterol = experiment: Plasma cholesterol lowering in hamsters; parameters: species or system hamster; settings: ability to lower plasma cholesterol in vivo in hamsters, yes/no
Method: The monosuccinic acid ester of probucol and several other compounds were tested in vitro in the immunoreactivity cell-free assay described above in Example 3 and in vivo in hamsters for their ability to lower plasma cholesterol.

VLDL and LDL clearance = experiment: Lipoprotein turnover study in monkeys (stable isotope labelling of apoB-100); type: in vivo, monkey; settings: no species or dose stated
Method: A lipoprotein turnover study was performed in monkeys that were dosed with the monosuccinic acid ester of probucol (25 mg/kg/day for one four weeks). The clearance rates of VLDL and LDL were examined before and after treatment of the animals using a stable isotope technique to label apoB-100 in VLDL and LDL.

[2] = system: LDL cholesterol, HDL, plasma triglycerides; settings: human, in vivo; cited from earlier work
purified human LDL = molecular target: T2, purified human LDL (Homo sapiens, UniProt P04114); experiment: Agarose electrophoresis of purified human LDL mixed with compound; type: binding
T2 construct: from tissue; host or cells: human LDL particles (plasma lipoprotein)
Method: Agarose electrophoresis is a technique used to separate and study lipoproteins. The monosuccinic acid ester of probucol was added to purified human LDL and the mixture was run on agarose electrophoresis.

total plasma cholesterol = experiment: Cholesterol lowering in mice lacking functional LDL receptors; type: in vivo, mouse; settings: LDL receptor-deficient mice, 150 mg/kg/day oral with high fat/high cholesterol diet, 12 weeks
Method: To explore whether the enhanced clearance is mediated by the tissue LDL receptors, the major clearance mechanism for LDL in the body, the LDL lowering activity of the monosuccinic acid ester of probucol was tested in a mouse model that lacks functional LDL receptors (eliminated through genetic engineering).

T1 sequence (P04114 28-4563): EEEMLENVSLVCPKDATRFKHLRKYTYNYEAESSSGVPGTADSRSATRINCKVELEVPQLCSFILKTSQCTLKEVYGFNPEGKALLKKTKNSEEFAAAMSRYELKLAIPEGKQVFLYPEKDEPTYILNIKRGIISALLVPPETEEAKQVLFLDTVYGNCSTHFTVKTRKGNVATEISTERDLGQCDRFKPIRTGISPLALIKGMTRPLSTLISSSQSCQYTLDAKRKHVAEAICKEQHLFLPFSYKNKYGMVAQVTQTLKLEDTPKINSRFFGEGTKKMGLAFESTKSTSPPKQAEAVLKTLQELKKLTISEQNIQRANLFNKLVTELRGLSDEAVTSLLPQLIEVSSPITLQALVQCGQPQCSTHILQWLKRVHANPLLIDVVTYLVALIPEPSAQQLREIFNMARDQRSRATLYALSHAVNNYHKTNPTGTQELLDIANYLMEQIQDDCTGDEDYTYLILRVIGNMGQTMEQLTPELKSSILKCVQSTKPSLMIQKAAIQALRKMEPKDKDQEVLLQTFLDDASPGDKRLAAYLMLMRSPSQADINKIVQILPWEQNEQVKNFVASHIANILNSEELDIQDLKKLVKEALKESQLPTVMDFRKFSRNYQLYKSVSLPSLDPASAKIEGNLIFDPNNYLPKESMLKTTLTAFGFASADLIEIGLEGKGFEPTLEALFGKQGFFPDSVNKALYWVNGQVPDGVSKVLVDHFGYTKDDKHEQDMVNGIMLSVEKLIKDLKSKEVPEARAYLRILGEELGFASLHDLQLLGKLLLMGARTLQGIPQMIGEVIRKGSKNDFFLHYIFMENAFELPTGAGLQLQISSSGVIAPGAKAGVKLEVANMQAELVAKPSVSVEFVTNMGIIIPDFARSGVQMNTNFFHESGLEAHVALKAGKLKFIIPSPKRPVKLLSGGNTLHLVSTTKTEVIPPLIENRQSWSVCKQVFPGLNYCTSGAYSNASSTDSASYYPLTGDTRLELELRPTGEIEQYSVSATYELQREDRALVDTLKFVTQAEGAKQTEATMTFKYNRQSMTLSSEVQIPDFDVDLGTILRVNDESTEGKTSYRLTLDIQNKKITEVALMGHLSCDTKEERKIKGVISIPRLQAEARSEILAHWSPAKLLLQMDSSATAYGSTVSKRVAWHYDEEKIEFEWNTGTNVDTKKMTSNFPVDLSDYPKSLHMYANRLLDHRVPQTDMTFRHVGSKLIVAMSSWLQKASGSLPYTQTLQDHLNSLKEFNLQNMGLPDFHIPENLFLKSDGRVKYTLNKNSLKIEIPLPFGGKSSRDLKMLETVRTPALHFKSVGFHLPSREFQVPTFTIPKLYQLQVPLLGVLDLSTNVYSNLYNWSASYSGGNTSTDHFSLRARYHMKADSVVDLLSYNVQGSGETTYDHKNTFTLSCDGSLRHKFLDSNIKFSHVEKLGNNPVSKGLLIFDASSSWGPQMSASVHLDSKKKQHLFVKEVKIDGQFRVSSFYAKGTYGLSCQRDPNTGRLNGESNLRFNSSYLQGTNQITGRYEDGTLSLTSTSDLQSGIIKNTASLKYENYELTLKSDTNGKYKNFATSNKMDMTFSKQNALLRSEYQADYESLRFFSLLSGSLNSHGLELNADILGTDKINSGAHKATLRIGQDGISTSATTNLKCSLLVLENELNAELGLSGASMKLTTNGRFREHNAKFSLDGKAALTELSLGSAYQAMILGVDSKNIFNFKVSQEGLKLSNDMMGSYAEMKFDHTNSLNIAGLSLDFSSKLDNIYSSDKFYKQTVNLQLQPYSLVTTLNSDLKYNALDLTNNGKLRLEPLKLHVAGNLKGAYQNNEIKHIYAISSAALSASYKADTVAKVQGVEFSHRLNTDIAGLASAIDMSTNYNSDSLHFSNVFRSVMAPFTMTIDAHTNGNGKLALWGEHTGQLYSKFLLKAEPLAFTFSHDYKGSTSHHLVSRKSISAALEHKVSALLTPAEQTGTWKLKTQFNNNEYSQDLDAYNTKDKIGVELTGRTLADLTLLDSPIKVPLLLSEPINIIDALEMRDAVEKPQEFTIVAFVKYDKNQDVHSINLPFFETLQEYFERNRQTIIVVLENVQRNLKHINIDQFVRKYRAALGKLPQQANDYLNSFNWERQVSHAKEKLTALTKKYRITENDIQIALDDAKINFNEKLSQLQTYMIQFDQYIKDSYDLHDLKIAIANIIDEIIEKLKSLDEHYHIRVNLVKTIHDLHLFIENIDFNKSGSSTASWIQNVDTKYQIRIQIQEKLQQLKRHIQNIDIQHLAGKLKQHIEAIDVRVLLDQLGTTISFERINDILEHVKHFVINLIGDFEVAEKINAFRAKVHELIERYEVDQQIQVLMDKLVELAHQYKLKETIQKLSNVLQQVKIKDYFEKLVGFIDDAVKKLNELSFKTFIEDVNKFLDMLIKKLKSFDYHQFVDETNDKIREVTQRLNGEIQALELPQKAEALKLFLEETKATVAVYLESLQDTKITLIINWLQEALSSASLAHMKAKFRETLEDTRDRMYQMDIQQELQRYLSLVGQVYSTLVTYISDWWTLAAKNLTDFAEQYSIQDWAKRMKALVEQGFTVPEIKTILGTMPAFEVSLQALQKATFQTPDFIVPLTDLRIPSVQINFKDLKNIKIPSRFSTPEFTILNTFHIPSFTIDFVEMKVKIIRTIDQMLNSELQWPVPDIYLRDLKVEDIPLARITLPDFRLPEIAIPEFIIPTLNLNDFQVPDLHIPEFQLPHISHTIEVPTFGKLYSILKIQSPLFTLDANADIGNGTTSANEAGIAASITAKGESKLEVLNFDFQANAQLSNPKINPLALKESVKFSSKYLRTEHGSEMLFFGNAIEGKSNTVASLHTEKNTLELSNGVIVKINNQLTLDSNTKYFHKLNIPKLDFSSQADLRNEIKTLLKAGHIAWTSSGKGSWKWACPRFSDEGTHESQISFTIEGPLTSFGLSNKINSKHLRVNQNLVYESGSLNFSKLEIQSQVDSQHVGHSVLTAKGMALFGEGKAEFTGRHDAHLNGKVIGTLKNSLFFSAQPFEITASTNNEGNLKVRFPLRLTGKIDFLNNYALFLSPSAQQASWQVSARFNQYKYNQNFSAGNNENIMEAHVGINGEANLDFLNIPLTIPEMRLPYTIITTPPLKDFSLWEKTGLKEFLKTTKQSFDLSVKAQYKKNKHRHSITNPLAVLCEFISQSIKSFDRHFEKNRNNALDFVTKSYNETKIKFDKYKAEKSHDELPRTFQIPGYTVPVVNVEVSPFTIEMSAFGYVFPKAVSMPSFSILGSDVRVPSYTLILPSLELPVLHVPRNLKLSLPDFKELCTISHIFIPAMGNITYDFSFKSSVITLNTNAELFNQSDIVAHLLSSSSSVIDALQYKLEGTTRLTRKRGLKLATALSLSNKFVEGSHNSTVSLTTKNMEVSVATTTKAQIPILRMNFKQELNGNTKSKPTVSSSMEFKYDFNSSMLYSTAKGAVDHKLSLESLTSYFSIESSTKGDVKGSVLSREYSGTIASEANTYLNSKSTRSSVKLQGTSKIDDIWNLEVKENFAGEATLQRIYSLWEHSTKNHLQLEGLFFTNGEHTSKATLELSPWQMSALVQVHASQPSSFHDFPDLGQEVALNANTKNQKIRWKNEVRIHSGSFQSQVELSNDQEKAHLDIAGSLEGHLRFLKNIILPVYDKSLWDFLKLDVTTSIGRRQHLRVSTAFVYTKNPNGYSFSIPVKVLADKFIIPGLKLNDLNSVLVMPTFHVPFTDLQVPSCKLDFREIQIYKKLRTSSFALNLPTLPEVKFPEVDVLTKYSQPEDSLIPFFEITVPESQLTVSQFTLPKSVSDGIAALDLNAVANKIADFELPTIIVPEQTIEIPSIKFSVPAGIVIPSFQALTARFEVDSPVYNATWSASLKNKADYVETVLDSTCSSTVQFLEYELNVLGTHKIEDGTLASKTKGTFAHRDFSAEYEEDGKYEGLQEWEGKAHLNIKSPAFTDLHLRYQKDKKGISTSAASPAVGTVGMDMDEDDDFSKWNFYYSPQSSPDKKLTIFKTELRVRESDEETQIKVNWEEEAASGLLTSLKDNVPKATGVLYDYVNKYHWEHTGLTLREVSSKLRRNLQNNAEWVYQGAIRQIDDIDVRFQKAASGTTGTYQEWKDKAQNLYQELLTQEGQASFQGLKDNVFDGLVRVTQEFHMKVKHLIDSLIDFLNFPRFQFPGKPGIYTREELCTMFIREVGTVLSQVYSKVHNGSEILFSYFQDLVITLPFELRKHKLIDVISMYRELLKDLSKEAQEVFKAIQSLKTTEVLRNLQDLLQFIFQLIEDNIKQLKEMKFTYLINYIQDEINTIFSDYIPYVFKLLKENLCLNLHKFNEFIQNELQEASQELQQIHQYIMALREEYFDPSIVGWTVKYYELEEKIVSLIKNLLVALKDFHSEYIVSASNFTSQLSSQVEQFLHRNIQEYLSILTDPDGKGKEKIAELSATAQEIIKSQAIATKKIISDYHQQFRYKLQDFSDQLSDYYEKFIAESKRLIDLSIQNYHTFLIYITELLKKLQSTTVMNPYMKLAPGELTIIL
T2 sequence (P04114 28-4563): as above

Molecule	Cell-Free Assay [1]	Hamster (plasma cholesterol)	further results
CC(C)(C)c1cc(SCc2ccc(C(F)(F)F)cc2)cc(C(C)(C)C)c1O [2,6-di-tert-butyl-4-thio-(4′-(trifluoromethyl)benzyl) phenol]	yes	yes	
CC(C)(C)c1cc(SCc2ccc(CCO)cc2)cc(C(C)(C)C)c1O [2,6-di-tert-butyl-4-thio-(4′-(methyl)phenylethyl alcohol))phenol]	yes	yes	
CN(C)S(=O)(=O)c1ccc(CSc2cc(C(C)(C)C)c(O)c(C(C)(C)C)c2)cc1 [2,6-di-tert-butyl-4-thio-(4′-methyl-N,N-dimethylbenzenesulfonamide) phenol]	yes	yes	
CC(C)(Sc1cc(C(C)(C)C)c(O)c(C(C)(C)C)c1)Sc1cc(C(C)(C)C)c(OCC(O)C(O)C(O)C(O)CO)c(C(C)(C)C)c1 (stereo not shown) [probucol-2,3,4,5,6-pentahydroxyhexyl ether]	yes	yes	
vitamin E [reference compound]			effect on binding of LDL to the capture monoclonal antibody (FIG. 6a) [1]: no significant effect
CC(C)(C)c1cc(SCc2cccc(OC(F)(F)F)c2)cc(C(C)(C)C)c1O [2,6-di-tert-butyl-4-[(3-trifluoromethoxy)benzylthio]phenol]	no	no	
CC(C)(C)c1cc(SCc2cccc(C(F)(F)F)c2)cc(C(C)(C)C)c1O [2,6-di-tert-butyl-4-[(3-trifluoromethyl)benzylthio]phenol]	no	yes	
CN(C)C(=O)c1ccc(CSc2cc(C(C)(C)C)c(O)c(C(C)(C)C)c2)cc1 [N,N-dimethyl-4-[(3,5-di-tert-butyl-4-hydroxyphenylthio)methyl]benzamide]	no	yes	
CC(C)(Sc1cc(C(C)(C)C)c(O)c(C(C)(C)C)c1)Sc1cc(C(C)(C)C)c(OC[C@@H](O)[C@@H](O)[C@H](O)[C@@H](O)C=O)c(C(C)(C)C)c1 [6-deoxy-6-(probucol-1-yl)-D-glucose]	yes	yes	
Cc1c(C)c2c(c(C)c1OC(=O)CCC(=O)O)CC[C@@](C)(CCC[C@H](C)CCC[C@H](C)CCCC(C)C)O2 [vitamin E succinate, reference compound]			effect on binding of LDL to the capture monoclonal antibody (FIG. 6a) [1]: increased the binding of LDL
CCN(CC)S(=O)(=O)c1ccc(CSc2cc(C(C)(C)C)c(O)c(C(C)(C)C)c2)cc1 [N,N-diethyl-4-[3,5-di-tert-butyl-4-hydroxyphenylthio)methyl]benzene-sulfonamide]	no	no	
O=C(O)CCC(=O)O [succinate, reference compound]			effect on binding of LDL to the capture monoclonal antibody (FIG. 6a) [1]: no significant effect
CC(C)(Sc1cc(C(C)(C)C)c(O)c(C(C)(C)C)c1)Sc1cc(C(C)(C)C)c(OC(=O)CCCC(=O)O)c(C(C)(C)C)c1 [pentanedioic acid, mono[4-[[1-[3,5-bis(1,1-dimethylethyl)-4-hydroxyphenyl]thio]1-methylethyl]thio-2,6-bis(1,1-dimethylethyl)phenyl]ester]	yes	yes	
CC(C)(C)c1cc(SCc2ccc(OC(=O)c3ccccc3)cc2)cc(C(C)(C)C)c1O [4-[(3,5-di-tert-butyl-4-hydroxyphenylthio)methyl]phenyl benzoate]	yes	yes	
CC(C)(Sc1cc(C(C)(C)C)c(O)c(C(C)(C)C)c1)Sc1cc(C(C)(C)C)c(O)c(C(C)(C)C)c1 [probucol, 4,4′-(isopropylidenedithio) bis(2,6-di-tert-butylphenol), reference compound]			effect on binding of LDL to the capture monoclonal antibody (FIG. 6a) [1]: no significant effect; effect on clearance of VLDL (general statement) (VLDL and LDL clearance): little effect; effect on plasma triglycerides [2]: no effect; shift of electrophoretic mobility of LDL (purified human LDL): did not shift the mobility of LDL; lowering of plasma cholesterol (total plasma cholesterol): 17%
CC(C)(C)c1cc(SCc2ccc([N+](=O)[O-])cc2[N+](=O)[O-])cc(C(C)(C)C)c1O [2,6-di-tert-butyl-4-[(2,4-dinitrobenzyl)thio]phenol]	no	no	

Further lines, with some results ahead:

Cell-Free Assay [1]	Molecule	Hamster (plasma cholesterol)	further results
yes	Mono[4-(3,5-di-tert-butyl-4-hydroxyphenacylthio)-2,6-di-tert-butylphenyl] succinate	no	
no	CC(C)(C)c1cc(SCc2ccc(F)cc2)cc(C(C)(C)C)c1O [2,6-di-tert-butyl-4-[(4-fluorobenzyl)thio]phenol]	no	
no	Mono[4-(3,5-di-tert-butyl-4-hydroxybenzyl)-2,6-di-tert-butylphenyl]glutarate	no	
yes	Mono[4-(3,5-di-tert-butyl-4-hydroxybenzyl)2,6-di-tert-butylphenyl] succinate	no	
no	CC(C)(C)c1cc(SCC(=O)c2ccc([N+](=O)[O-])cc2)cc(C(C)(C)C)c1O [α-(3,5-di-tert-butyl-4-hydroxyphenylthio)-4-nitro-acetophenone]	yes	
no	CC(C)(C)c1cc(SCc2ccc(F)cc2C(F)(F)F)cc(C(C)(C)C)c1O [2,6-di-tert-butyl-4-[4-fluoro-2-(trifluoromethyl)benzylthio]phenol]	no	
yes	COC(=O)c1ccc(CSc2cc(C(C)(C)C)c(O)c(C(C)(C)C)c2)o1 [Methyl 5-(3,5-id-tert-butyl-4-hydroxyphenylthio)methyl-2-furoate]	yes	
yes	CC(C)(Sc1cc(C(C)(C)C)c(O)c(C(C)(C)C)c1)Sc1cc(C(C)(C)C)c(OCC(O)C(O)C(O)C(=O)O)c(C(C)(C)C)c1 (stereo not shown) [5-[4-[[1-[[3,5-bis(1,1-dimethylethyl)-4-hydroxyphenyl)thio]-1-methylethyl]thioo-2,6-bis(1,1-dimethylethyl)phenoxy-2,3,4-trihydroxy-pentanoic acid]	no	
no	CCCN(CCC)C(=O)c1ccc(CSc2cc(C(C)(C)C)c(O)c(C(C)(C)C)c2)cc1 [N,N-dipropyl-4-[(3,5-di-tert-butyl-4-hydroxyphenylthio)methyl]benzamide]	no	
yes	CN(C)C(=O)Cc1ccc(CSc2cc(C(C)(C)C)c(O)c(C(C)(C)C)c2)cc1 [N,N-dimethyl-4-[(3,5-di-tert-butyl-4-hydroxyphenylthio)methyl]phenylacetamide]	yes	
